# Measured values published in publication PMC2874393, “Comparison of zwitterionic N-alkylaminomethanesulfonic acids to related compounds in the Good buffer series” (Beilstein Journal of Organic Chemistry, 2010).
# Read-outs that look alike come from different tables or passages of the source. Marks after values point to notes of the source that are not given here.
# Legend:
# [1] = cited from earlier work; for pKa (ethyl analog) / pKa (propyl analog): ref [1],[5],[7]; for pKa: in water, ref [4]
# [2] = aqueous solubility (observation); format: physicochemical; settings: at low pH / pH ≤ pKa
# Text: All of the compounds except 2 show evidence of a systematic decrease in pKa as the number of carbons between the amine and sulfonic acid functional groups decreases.
# [3] = pKa of ammonium ion proton dissociation by aqueous solution titrimetry; format: physicochemical
# Experimental: We then performed titrations to determine the pKa values of proton dissociation from the ammonium ion (1a and equivalent). The pKa values determined for these compounds, along with those of the analogous aminoethanesulfonate and aminopropanesulfonate buffer pKa values for comparison is presented in Table 1.
# Acid dissociation constants for the ammonium ions were determined by aqueous solution titrimetry (min. 5 repetitions from low to high, then high to low pH) using standardized NaOH and HCl solutions.
# E. coli strain HB101 = assay: culture growth with buffer compounds, optical density at 600 nm; format: cell-based; settings: for Final OD600: E. coli HB101, pH 7.2, 37 °C, 18 h, 3 trials; for culture growth support: all concentrations tested (10, 20, 50 mM); for toxicity or culture growth inhibition: higher concentrations of buffer
# Experimental: In order to assess the potential utility of these compounds as biological buffers, we conducted an initial experiment with different concentrations of the new compounds with E. coli strain HB101 at pH 7.2 and 37 °C for 18 h. Culture growth was estimated by optical density measurement at 600 nm, and the results are summarized in Table 2 (in which each value is the result of 3 separate trials, with an overall standard error for all final measurements of 0.025).
# [4] = 2nd (ammonium) dissociation constant value
# [5] = ammonium ion, aqueous titration
smiles,measurement,setting,value
"O=S(=O)(O)CCNC1CCCCC1 [CHES, 2-(cyclohexylamino)ethanesulfonic acid]",pKa (ethyl analog),[1],9.3
"O=S(=O)(O)CCCN1CCN(CCO)CC1 [EPPS, 4-(2-hydroxyethyl)-1-piperazinepropanesulfonic acid]",pKa (propyl analog),[1],8.0
O=S(=O)(O)CCN1CCN(CCO)CC1 [HEPES],pKa (ethyl analog),[1],7.5
"O=S(=O)(O)CCN1CCN(CCS(=O)(=O)O)CC1 [PIPES, reference compound]",aqueous solubility,[2],limited aqueous solubility
same,pKa (ethyl analog),[1]; [4],6.8^b
"O=S(=O)(O)CCCN1CCN(CCCS(=O)(=O)O)CC1 [PIPPS, piperazine-N,N′-bis(3-propanesulfonic acid]",pKa (propyl analog),[1]; [4],8.0^b
NCS(=O)(=O)O [aminomethanesulfonic acid],pKa,[1],5.75
"O=S(=O)(O)CN1CCOCC1 [compound 1, N-Morpholinomethanesulfonic acid]",pKa,[3]; 0.3 M solution at 20 °C,3.8
same,pKa,[3]; [5],3.9
same,Final OD600,E. coli strain HB101; 10 mM buffer,1.16
same,Final OD600,E. coli strain HB101; 20 mM buffer,1.22
same,Final OD600,E. coli strain HB101; 50 mM buffer,1.18
same,culture growth support,E. coli strain HB101,supported culture growth at all concentrations tested
"O=S(=O)(O)CN1CCN(CCO)CC1 [compound 2, N-(2-hydroxyethyl)piperazine-N′-methanesulfonic acid]",pKa,[3]; 0.25M solution at 20 °C,7.4
same,pKa,[3]; [5],7.9
same,Final OD600,E. coli strain HB101; 10 mM buffer,1.16
same,Final OD600,E. coli strain HB101; 20 mM buffer,1.08
same,Final OD600,E. coli strain HB101; 50 mM buffer,0.66
same,culture growth support,E. coli strain HB101,supported culture growth at all concentrations tested
same,toxicity or culture growth inhibition,E. coli strain HB101,possible toxicity or other culture growth inhibition
"O=S(=O)(O)CN1CCN(CS(=O)(=O)O)CC1 [compound 3, Piperazine-N,N′-bis(methanesulfonic acid)]",aqueous solubility,[2],does not demonstrate the limited aqueous solubility
same,pKa,[3]; 0.3 M solution at 20 °C,4.8
same,pKa,"[3]; 2nd (ammonium) dissociation constant value, aqueous titration",4.9
same,Final OD600,E. coli strain HB101; 10 mM buffer,1.23
same,Final OD600,E. coli strain HB101; 20 mM buffer,1.21
same,Final OD600,E. coli strain HB101; 50 mM buffer,1.08
same,culture growth support,E. coli strain HB101,supported culture growth at all concentrations tested
same,toxicity or culture growth inhibition,E. coli strain HB101,possible toxicity or other culture growth inhibition
"O=S(=O)(O)CNC1CCCCC1 [compound 4, Cyclohexylaminomethanesulfonic acid]",aqueous solubility,[2],limited solubility in aqueous solution
same,pKa,[3]; 0.3 M solution at 20 °C,7.8
same,pKa,[3]; [5],~7
NS(=O)(=O)O [sulfamic acid],pKa,[1],1.01
